The target of one experiment is T1, human PPARγ2 (Homo sapiens, UniProt P37231).
T1 construct: the amino acids 182 to 505 of human PPARγ2; expressed in transfected cells; host or cells: COS7 cells (African green monkey kidney)
T1 sequence (P37231 182-505): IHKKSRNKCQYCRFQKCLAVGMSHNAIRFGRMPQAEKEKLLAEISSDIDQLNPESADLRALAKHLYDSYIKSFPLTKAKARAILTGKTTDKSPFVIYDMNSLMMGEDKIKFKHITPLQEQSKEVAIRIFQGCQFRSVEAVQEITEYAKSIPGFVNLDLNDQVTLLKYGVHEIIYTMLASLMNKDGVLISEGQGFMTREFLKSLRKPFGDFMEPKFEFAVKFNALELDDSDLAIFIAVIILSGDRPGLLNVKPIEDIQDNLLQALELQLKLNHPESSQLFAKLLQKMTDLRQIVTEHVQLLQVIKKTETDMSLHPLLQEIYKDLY
The experiment can be described thus: PPARγ activation activity, Gal4-PPARγ2 LBD luciferase transfection assay using COS7 cells. The conditions noted are these: for EC50: COS7 cells, 16 hours, luciferase activity relative to rosiglitazone = 100%, read-out: EC50; for Emax: COS-7, 16 h, maximum activity strength relative to the maximum activity of rosiglitazone, read-out: % MAX vs Rosiglitazone. It is filed as cell-based. The protocol: The agonistic activity of the compounds of the invention on PPARγ was measured based on the transfection assay using COS7 cells (DS Pharma Biomedical Co., Ltd., Osaka, Japan), which are the cell line derived from the kidney of the African green monkey. COS7 cells were cultured under 5% CO2 concentration, and DMEM medium containing 10% fetal bovine serum, glutamic acid, and antibiotics was used as a medium.
As an expression vector, a chimera in which DNA binding domain of Gal4, which is a yeast transcription factor, and ligand binding domain of human PPARγ2 are fused, i.e., a fused product between the amino acids 1 to 147 of Gal4 transcription factor and the amino acids 182 to 505 of human PPARγ2, was used. Furthermore, as a reporter vector, a firefly luciferase containing five copies of Gal4 recognition sequence in the promoter region was used. Plasmid transfection to the cells was performed according to a method which uses jetPEI (trade name, manufactured by Funakoshi Co., Ltd., Tokyo, Japan). Furthermore, β-galactosidase expression vector was employed as an internal standard.
After the transfection of the cells, the medium was replaced with a DMEM medium (containing 1% serum) added with the compound, and the cells were further cultured for 16 hours. After that, the luciferase activity and β-galactosidase activity in the cell lysis solution were measured.
For the present test, dimethyl sulfoxide (DMSO) was used for dissolution and dilution of the test compounds, and during the cell treatment, the DMSO concentration in DMEM medium (containing 1% serum) was adjusted to 0.1%. As a positive compound, rosiglitazone (trade name, manufactured by ALEXIS Corporation, Switzerland) was used. The luciferase activity (%) of the test compounds (1 to 30 μmol/L) was calculated when the luciferase activity of rosiglitazone (3 to 10 μmol/L) is 100% and the luciferase activity in the absence of the test compound is 0%. The 50% effective concentration of the test compound (EC50, 50% effect concentration) was calculated by using SAS Preclinical Package Ver5.0 (trade name, manufactured by SAS institute Japan Co., Tokyo, Japan), which is a statistical analysis program.

For experiment [1], the target named is T2, angiotensin II type 1 receptor (Oryctolagus cuniculus, UniProt P34976).
T2 construct: By using a specimen of isolated rabbit blood vessels; from tissue; host or cells: rabbit (New Zealand White) thoracic aorta ring
T2 sequence (P34976 1-359): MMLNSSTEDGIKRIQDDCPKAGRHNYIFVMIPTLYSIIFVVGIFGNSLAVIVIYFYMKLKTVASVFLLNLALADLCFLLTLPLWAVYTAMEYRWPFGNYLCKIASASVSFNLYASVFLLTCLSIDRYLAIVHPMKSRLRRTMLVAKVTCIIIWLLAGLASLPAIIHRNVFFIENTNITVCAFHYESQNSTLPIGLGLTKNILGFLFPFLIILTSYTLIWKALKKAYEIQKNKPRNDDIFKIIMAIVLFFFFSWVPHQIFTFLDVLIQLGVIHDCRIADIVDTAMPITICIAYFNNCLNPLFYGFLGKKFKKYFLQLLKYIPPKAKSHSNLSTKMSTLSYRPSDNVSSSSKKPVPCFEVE
The experiment can be described thus: Angiotensin II antagonistic activity in isolated rabbit blood vessels (thoracic aorta ring contraction). The conditions noted are these: angiotensin II (10 nM)-induced contraction. The procedure:
By using a specimen of isolated rabbit blood vessels, antagonistic activity of the compounds of the invention against angiotensin II type 1 receptor was estimated from a dose-response curve of angiotensin II-induced blood vessel contraction.
During the measurement, the inside temperature of the magnus bath was maintained at 37° C. and the bath was continuously ventilated with a sufficient amount of mixed gas (95% O2 and 5% CO2). The angiotensin II-induced contraction was converted into a relative value (%) that is based on the angiotensin II (10 nM)-induced contraction in the absence of the compounds of each example. From the concentration-response curve obtained therefrom, 50% inhibition concentration (IC50 value) was calculated by using SAS Preclinical Package Ver5.0 (trade name, manufactured by SAS institute Japan Co., Tokyo, Japan), which is a statistical analysis program.

Take `CCCCc1nc(C)n(-c2ncc(OC)cn2)c(=O)c1Cc1cc(CCC)c(OC(C(=O)O)c2ccccc2)c(CCC)c1` (single isomer, unassigned; (+)) [Example 17, (+)-2-[4-[{4-butyl-1-(5-methoxypyrimidin-2-yl)-2-methyl-6-oxo-1,6-dihydropyrimidin-5-yl}methyl]-2,6-dipropylphenoxy]-2-phenylacetic acid]: on human PPARγ2, the EC50 (usually the midpoint of the concentration-response curve) is 3.71 µM.
With `CCCc1cc(Cc2c(CCC)nc(C)n(-c3ccccn3)c2=O)cc(CCC)c1OC(C(=O)O)c1ccccc1` (stereo not drawn) [Example 2, 2-[4-[{2-methyl-6-oxo-4-propyl-1-(pyridin-2-yl)-1,6-dihydropyrimidin-5-yl}methyl]-2,6-dipropylphenoxy]-2-phenylacetic acid], on human PPARγ2, the EC50 worked out at 3.91 µM and the Emax turned out to be 25.2%.
`CCCc1cc(Cc2c(CC)nc(C)n(-c3ccccn3)c2=O)cc(CCC)c1OC(C(=O)O)c1ccccc1` (stereo not drawn) [Example 3]: the EC50 at human PPARγ2 stood at 3.52 µM.
As to `CCCCc1nc(C)n(-c2ccccn2)c(=O)c1Cc1cc(CCC)c(OC(c2ccccc2)c2nnn[nH]2)c(CCC)c1` (stereo not drawn) [Example 4, 6-butyl-2-methyl-5-[4-{phenyl(1H-tetrazol-5-yl)methoxy}-3,5-dipropylbenzyl]-3-(pyridin-2-yl)pyrimidin-4(3H)-one], on human PPARγ2, the EC50 was determined as 1.72 µM.
Take `CCCCc1nc(C)n(-c2ccccn2)c(=O)c1Cc1cc(CCC)c(OC(c2ccccc2)c2noc(=O)[nH]2)c(CCC)c1` (stereo not drawn) [Example 5, 3-[[4-[{4-butyl-2-methyl-6-oxo-1-(pyridin-2-yl)-1,6-dihydropyrimidin-5-yl}methyl]-2,6-dipropylphenoxy](phenyl)methyl]-1,2,4-oxadiazol-5(4H)-one]: at human PPARγ2, the EC50 worked out at 1.19 µM and the Emax came out at 35.1%.
Turning to `CCCCc1nc(C)n(-c2ccccn2)c(=O)c1Cc1cc(CCC)c(OC(C(=O)NS(C)(=O)=O)c2ccccc2)c(CCC)c1` (stereo not drawn) [Example 6, 2-[4-[{4-butyl-2-methyl-6-oxo-1-(pyridin-2-yl)-1,6-dihydropyrimidin-5-yl}methyl]-2,6-dipropylphenoxy]-N-(methylsulfonyl)-2-phenyl acetoamide], the EC50 on human PPARγ2 worked out at 3.19 µM.
`CCCCc1nc(C)n(-c2ccccn2)c(=O)c1Cc1cc(CCC)c(OC(C(=O)O)c2ccccc2Cl)c(CCC)c1` (stereo not drawn) [Example 7]: on human PPARγ2, the 50% effective concentration (EC50) turned out to be 3.46 µM and the Emax is 23.3%.
In the same order, the values of `CCCCc1nc(C)n(-c2ccccn2)c(=O)c1Cc1cc(CCC)c(OC(C(=O)O)c2cccc(Cl)c2)c(CCC)c1` (stereo not drawn) [Example 8, 2-[4-[{4-butyl-2-methyl-6-oxo-1-(pyridin-2-yl)-1,6-dihydropyrimidin-5-yl}methyl]-2,6-dipropylphenoxy]-2-(3-chlorophenyl)acetic acid] are 2.02 µM and 41.4%.
As for `CCCCc1nc(C)n(-c2ccccn2)c(=O)c1Cc1cc(CCC)c(OC(C(=O)O)c2ccccc2OC)c(CCC)c1` (stereo not drawn) [Example 10, 2-[4-[{4-butyl-2-methyl-6-oxo-1-(pyridin-2-yl)-1,6-dihydropyrimidin-5-yl}methyl]-2,6-dipropylphenoxy]-2-(2-methoxyphenyl)acetic acid], on human PPARγ2, the EC50 amounted to 3.29 µM and the Emax was found to be 25.6%.
For the molecule `CCCCc1nc(C)n(-c2ccccn2)c(=O)c1Cc1cc(CCC)c(OC(c2nnn[nH]2)c2ccccc2Cl)c(CCC)c1` (stereo not drawn) [Example 11, 6-butyl-5-[4-{(2-chlorophenyl)(1H-tetrazol-5-yl)methoxy}-3,5-dipropylbenzyl]-2-methyl-3-(pyridin-2-yl)pyrimidin-4(3H)-one], the EC50 at human PPARγ2 was 2.63 µM.
For `CCCCc1nc(C)n(-c2ccc(OCC)cc2)c(=O)c1Cc1cc(CCC)c(OC(C(=O)O)c2ccccc2)c(CCC)c1` (stereo not drawn) [Example 13], on human PPARγ2, the EC50 is 0.48 µM and the Emax amounted to 42.9%.
Regarding `CCCCc1nc(C)n(-c2ncc(OC)cn2)c(=O)c1Cc1cc(CCC)c(OC(C(=O)O)c2ccc(Cl)cc2)c(CCC)c1` (stereo not drawn) [Example 18, 2-[4-[{4-butyl-1-(5-methoxypyrimidin-2-yl)-2-methyl-6-oxo-1,6-dihydropyrimidin-5-yl}methyl]-2,6-dipropylphenoxy]-2-(4-chlorophenyl)acetic acid], on human PPARγ2, the EC50 worked out at 1.4 µM and the Emax came out at 49.1%.
For the molecule `CCCCc1nc(C)n(-c2ncc(OCc3ccccc3)cn2)c(=O)c1Cc1cc(CCC)c(OC(C(=O)O)c2ccccc2)c(CCC)c1` (stereo not drawn) [Example 19, 2-[4-[[1-[5-(benzyloxy)pyrimidin-2-yl]-4-butyl-2-methyl-6-oxo-1,6-dihydropyrimidin-5-yl]methyl]-2,6-dipropylphenoxy]-2-phenylacetic acid], at human PPARγ2, the EC50 amounted to 0.65 µM and the Emax turned out to be 49.9%.
Turning to `CCCCc1nc(C)n(-c2ncc(OCCCC(N)=O)cn2)c(=O)c1Cc1cc(CCC)c(OC(C(=O)O)c2ccccc2)c(CCC)c1` (stereo not drawn) [Example 23], in experiment [1], the IC50 (commonly the concentration needed to halve the response being measured) stood at 0.067 µM.
Consider `CCCCc1nc(C)n(-c2ncc(OCCSC)cn2)c(=O)c1Cc1cc(CCC)c(OC(C(=O)O)c2ccccc2)c(CCC)c1` (stereo not drawn) [Example 24, 2-[4-[[4-butyl-2-methyl-1-[5-{2-(methylthio)ethoxy}pyrimidin-2-yl]-6-oxo-1,6-dihydropyrimidin-5-yl]methyl]-2,6-dipropylphenoxy]-2-phenylacetic acid], for which, on human PPARγ2, the EC50 was determined as 1.34 µM and the Emax was 39.8%.
With `CCCCc1nc(C)n(-c2ncc(OCC[S+](C)[O-])cn2)c(=O)c1Cc1cc(CCC)c(OC(C(=O)O)c2ccccc2)c(CCC)c1` (stereo not drawn) [Example 25], in experiment [1], 0.076 µM corresponded to half-maximal inhibition (IC50).
On the same count and under the same terms, next, `CCCCc1nc(C)n(-c2ncc(OCCS(C)(=O)=O)cn2)c(=O)c1Cc1cc(CCC)c(OC(C(=O)O)c2ccccc2)c(CCC)c1` (stereo not drawn) [Example 26, 2-[4-[[4-butyl-2-methyl-1-[5-{2-(methylsulfonyl)ethoxy}pyrimidin-2-yl]-6-oxo-1,6-dihydropyrimidin-5-yl]methyl]-2,6-dipropylphenoxy]-2-phenylacetic acid]: 0.353 µM; `CCCCc1nc(C)n(-c2ncc(O)cn2)c(=O)c1Cc1cc(CCC)c(OC(C(=O)O)c2ccccc2)c(CCC)c1` (stereo not drawn) [Example 27, 2-[4-[{4-butyl-1-(5-hydroxypyrimidin-2-yl)-2-methyl-6-oxo-1,6-dihydropyrimidin-5-yl}methyl]-2,6-dipropylphenoxy]-2-phe nylacetic acid]: 0.468 µM.
For the molecule `CCCCc1nc(C)nc(OCc2ccccc2)c1Cc1cc(CCC)c(OC(C(=O)O)c2ccccc2)c(CCC)c1` (stereo not drawn) [Example 29], the EC50 at human PPARγ2 was found to be 2.49 µM.
Take `CCCCc1nc(CCc2ccc(CC)cn2)[nH]c(=O)c1Cc1cc(CCC)c(OC(C(=O)O)c2ccccc2)c(CCC)c1` (stereo not drawn) [Example 31]: the EC50 on human PPARγ2 stood at 1.21 µM.
On the same count and under the same terms, as for `CCCCc1nc(C)nc(OCCOC)c1Cc1cc(CCC)c(OC(C(=O)O)c2ccccc2)c(CCC)c1` (stereo not drawn) [Example 32, 2-[4-[{4-butyl-6-(2-methoxyethoxy)-2-methylpyrimidin-5-yl}methyl]-2,6-dipropylphenoxy]-2-phenylacetic acid], the figure is 2.4 µM.

The values above are taken from patent publication US20120046308A1, “NOVEL ALPHA-PHENOXYBENZENEACETIC ACID DERIVATIVE AND PHARMACEUTICAL PREPARATION COMPRISING SAME” (KOWA COMPANY, LTD., priority 2009, published 2012).
